Key:
[1] = tested on: beta-galactosidase positive Eschericha coli (NM1); assay: IO staining of bacterial colonies on Nutrient Agar (color, fluorescence, localization, growth); as to C: Color of colonies (strength): key: −: absent; +/−: weak; +: strong; ++: very strong; as to F: Fluorescence of colonies (strength): key: −: absent; +/−: weak; +: strong; ++: very strong; as to G: Growth of colonies: key: −: absent; +/−: weak; +: strong; ++: very strong; as to L: Localization of stain on colonies: key: −: absent; +/−: weak; +: strong; ++: very strong; format: cell-based, E. coli; conditions: 150 mg/l substrate and 100 mg/l IPTG; for C: Color of colonies (colour of stain) / C: Color of colonies (strength): 24 h on Nutrient Agar; for G: Growth of colonies / L: Localization of stain on colonies / F: Fluorescence of colonies (strength) / C: Color of colonies (strength): E. coli; for G: Growth of colonies / L: Localization of stain on colonies / F: Fluorescence of colonies (strength) / F: Fluorescence of colonies (colour): 24 h; for F: Fluorescence of colonies (strength) / F: Fluorescence of colonies (colour): 366 nm UV
Protocol: (§1) Nutrient Agar (5 g/l peptone, 5 g/l NaCl, 2 g/l yeast extract, 1 g/l beef extract, 13 g/l agar, pH 7.4) was autoclaved and allowed to cool to 50° C. Then indicators were added to final concentrations of 150 mg/l (from a 20 mg/ml stock solution in DMF).
(§2) Optionally IPTG was added to 100 mg/l (from a 100 mg/ml stock solution in H2O) and plates were poured. Agar plates were inoculated with cultures of beta-galactosidase positive Eschericha coli (NM1) or beta-galactosidase negative Salmonella enteritidis (RKI 05/07992) (pre-grown on nutrient broth for 8-18 hours) and incubated at 37° C. Plates were inspected at 16, 20, 24 and 48 hours and pictures were recorded at 18, 24, and 48 hours with a Digistore 2 Image documentation system (CAMAG) under white light.
(§3) A considerable number of indicators molecules (Table IVa, IVb) and a selection of labile groups (Table IVc) were tested with various microbial species producing different biomarker enzymes (external stimuli, eS). The color of stains ranges from yellow to red.
(§4) Plating media from Example 10 were examined under 366 nm UV irradiation at 16, 20, 24 and 48 hours for fluorescence by means of Digistore 2 Image documentation system (CAMAG). Loops of bacterial cells, grown for 48 hours on Nutrient Agar plates containing 150 mg/l beta-D-galactosidase indicator and 100 mg/l IPTG, were directly streaked into wells of black clear bottom microtiter plates. Fluorescence scans were recorded on a Spectramax M5 (Molecular Devices).

[2] = tested on: beta-galactosidase negative Salmonella enteritidis (RKI 05/07992); format: cell-based; conditions: S. enteritidis (b-gal negative), 24 h, 150 mg/l substrate and 100 mg/l IPTG; for F: Fluorescence of colonies (strength): 366 nm UV; as to all read-outs here: key: −: absent; +/−: weak; +: strong; ++: very strong
Protocol: as §1, §2, §3, §4

SMILES	C: Color of colonies (colour of stain) [1]	G: Growth of colonies [1]	L: Localization of stain on colonies [1]	F: Fluorescence of colonies (strength) [1]	C: Color of colonies (strength) [1]	C: Color of colonies (strength) [2]	F: Fluorescence of colonies (strength) [2]	F: Fluorescence of colonies (colour) [1]
CC(=O)c1ccccc1-n1cc(O[C@@H]2O[C@H](CO)[C@H](O)[C@H](O)[C@H]2O)c2c(Cl)c(Br)ccc21 [Indicator I17a, 1-(2-Acetylphenyl)-5-bromo-4-chloro-1H-indol-3-yl-beta-D-galactopyranoside]	yellow-orange	+	+	−	+	−	−	
O=Cc1ccccc1-n1cc(O[C@@H]2O[C@H](CO)[C@H](O)[C@H](O)[C@H]2O)c2ccccc21 [Indicator I13a, 1-(2-Formylphenyl)-1H-indol-3-yl-beta-D-galactopyranoside]	cream-orange	+	+	−	+/−	−	−	
CC(=O)c1ccccc1-n1cc(O[C@@H]2O[C@H](CO)[C@H](O)[C@H](O)[C@H]2O)c2ccccc21 [Indicator I14a, 1-(2-Acetylphenyl)-1H-indol-3-yl-beta-D-galactopyranoside]	light yellow	+	+	−	+	−	−	
COc1ccc(C(=O)c2ccccc2)c(-n2cc(O[C@@H]3O[C@H](CO)[C@H](O)[C@H](O)[C@H]3O)c3ccc(Cl)cc32)c1 [Indicator I24a, 1-(2-Benzoyl-5-methoxyphenyl)-6-chloro-1H-indol-3-yl-beta-D-galactopyranoside]	dark yellow	+	+/−	+	+	−	−	yellow-green
O=C(O)c1ccc(C(=O)c2ccccc2-n2cc(O[C@@H]3O[C@H](CO)[C@H](O)[C@H](O)[C@H]3O)c3ccc(Cl)cc32)o1 [Indicator I29a, 1-[2-(5-Carboxylfuranoyl)phenyl]-6-chloro-1H-indol-3-yl-beta-D-galactopyranoside]	red	+	−	−	+	−	−	
COc1ccc(C(C)=O)c(-n2cc(O[C@@H]3O[C@H](CO)[C@H](O)[C@H](O)[C@H]3O)c3ccc(Cl)cc32)c1 [Indicator I18a, 1-(2-Acetyl-5-methoxyphenyl)-6-chloro-1H-indol-3-yl-beta-D-galactopyranoside]	light yellow	+	+/−	+/−	+	−	−	green
O=C(c1ccccc1)c1ccccc1-n1cc(O[C@@H]2O[C@H](CO)[C@H](O)[C@H](O)[C@H]2O)c2c(Cl)cccc21 [Indicator I20a, 1-(2-Benzoylphenyl)-4-chloro-1H-indol-3-yl-beta-D-galactopyranoside]	orange	+	cryst.	+/−	+/−	−	−	orange
O=C(c1ccccc1)c1ccccc1-n1cc(O[C@@H]2O[C@H](CO)[C@H](O)[C@H](O)[C@H]2O)c2ccccc21 [Indicator I19a, 1-(2-Benzoylphenyl)-1H-indol-3-yl-beta-D-galactopyranoside]	yellow-orange	+	+	+	+	−	−	yellow
COc1ccc(C(=O)c2ccccc2-n2cc(O[C@@H]3O[C@H](CO)[C@H](O)[C@H](O)[C@H]3O)c3c(Cl)cccc32)c(OC)c1 [Indicator I26a, 4-Chloro-1-[2-(2,4-dimethoxybenzoyl)phenyl]-1H-indol-3-yl-beta-D-galactopyranoside]	yellow-orange	+	+	+/−	+	−	−	orange
O=C(c1ccco1)c1ccccc1-n1cc(O[C@@H]2O[C@H](CO)[C@H](O)[C@H](O)[C@H]2O)c2ccc(Cl)cc21 [Indicator I30a, 6-Chloro-1-(2-furanoylphenyl)-1H-indol-3-yl-beta-D-galactopyranoside]	dark orange	+	+/−	+/−	++	−	−	orange-red

— patent US8940909B2, “Indicator platform” (Biosynth AG, priority 2009, dated 2015)
